Assay results from patent publication US8399447B2, “Metal triangulo compound and methods of using the same” (National University of Singapore, priority 2007, dated 2013).
“Also recorded” adds a separate entry of the source.

Columns and labels:
HL-60 cells [1] = test: DNA fragmentation by propidium iodide flow cytometry, HL-60; type: cell-based, human; conditions: HL-60, 12.5 and 25 μM, 24 hours
Procedure: FIG. 4 depicts the detection of DNA Fragmentation. DNA cleavage in [Os3(CO)10(μ-H)(μ-S)C9H6N]-treated tumour cells was assessed using flow cytometric analysis. HL-60 cells were treated with 12.5 and 25 μM [Os3(CO)10(pt-H)(μ-S)C9H6N] for 24 hours, immediately fixed in ethanol, and stained with PI for DNA content analysis. SubG1 population indicates subdiplod DNA content indicative of apoptotic DNA fragmentation. Data shown are representative of at least three independent experiments.
For cellular DNA content determination, 1×10^6 cells/ml from each cell line were treated with [Os3(CO)10(μ-H)(μ-S)C9H6N]. After treatment, cells were washed twice with 1×PBS+1 FBS. Sample preparation and staining with PI for DNA content were performed as described elsewhere (32). […]
Fixed cells were left at 4° C. for 30 min, centrifuged at 1000×g for 5 min and washed once with 1×PBS+1% FBS. […] Stained cells were analyzed by flow cytometry with the excitation set at 488 nm and the emission set at 610 nm (red).
The ability of the cells to scatter light in a forward direction (FS) correlates with cell volume. Os drug-treated cells were analysed for changes in the intensity of FS as compared to untreated control cells. A total of 10,000 cells per sample were studied and data were analyzed by the WINMDI software.

[2] = test system: Jurkat Neo and Jurkat BCL2 cells; test: DNA fragmentation by PI, Jurkat Neo and Jurkat BCL2; type: cell-based; conditions: 12.5 and 25 μM, 18 hours; for DNA fragmentation / apoptosis with Bcl-2 overexpression: BCl2 overexpressing jurkat cells
Procedure: Jurkat Neo and Jurkat BCL2 cells were treated with 12.5 and 25 μM of [Os3(CO)10(μ-H)(μ-S)C9H6N] for 18 hours, immediately fixed in ethanol and stained with PI for DNA content analysis. Sub-G1 population indicates subdiploid DNA content indicative of apoptotic. The DNA fragmentation induced by [Os3(CO)10(μ-H)(μ-S)C9H6N] is inhibited in BCl2 overexpressing jurkat cells. Data shown are representative of at least three independent experiments.
For cellular DNA content determination, 1×10^6 cells/ml from each cell line were treated with [Os3(CO)10(μ-H)(μ-S)C9H6N]. After treatment, cells were washed twice with 1×PBS+1 FBS. Sample preparation and staining with PI for DNA content were performed as described elsewhere (32). Briefly, cell pellets were resuspended in 0.5 ml of 1×PBS+1% FBS and immediately fixed by adding 5 ml of 70% ethanol while vortexing to avoid clumping.
Fixed cells were left at 4° C. for 30 min, centrifuged at 1000×g for 5 min and washed once with 1×PBS+1% FBS. Cell pellets were then suspended in 0.5 ml of PI/RNAse. A solution prepared by adding 1/50 volume of PI stock and 1/40 volume of RNAse. A stock to 1×PBS+1% FBS and incubated for 30 min at 37° C. Stained cells were analyzed by flow cytometry with the excitation set at 488 nm and the emission set at 610 nm (red).

jurkat cells = test: Intracellular superoxide, lucigenin chemiluminescence, Jurkat; type: cell-based; conditions: 12.5 and 25 μM, 2 h and 4 h (FIG. 5A)
Procedure: (§1) (A) Jurkat cells and (B) HL-60 cells (2×10^6) were incubated with 12.5 and 25 μM [Os3(CO)10(μ-H)(μ-S)C9H6N] and […] O2^− was measured by a lucigenine-based chemiluminescence assay (C) A, cytosolic pH was determined with the pH-sensitive probe 2′,7′-bis(2-carboxyethyl)-5,6-carboxy-fluorescein.
(§2) A lucigenin-based chemiluminescence assay is routinely used in the laboratory as detailed in Clement and Pervaiz (Pervaiz S, Clement M V, Methods Enzymol. (2002) 352, 150-159). In brief, chemiluminescence was monitored using a Berthold Sirius Luminometer (Berthold Detection Systems GmbH, Bleichstralβe/Pforzheim, Germany). Data are described as relative light units/mg of protein (RLU/mg protein). Protein concentration was determined using the Coomassie Plus protein assay reagent from Pierce (Pierce Chemical Company, Rockford, Ill., USA) as detailed by the manufacturer.
(§3) This example illustrates determining whether and to what extent apoptosis induced by an osmium triangulo compound of the present invention is accompanied by an increase in intracellular ROS production. Cells were exposed to [Os3(CO)10(μ-H)(μ-S)C9H6N] for 2 h and 4 h and intracellular O2^− production was measured by a lucigenin-based chemiluminescence assay.

HL-60 cells [3] = test: Intracellular superoxide, lucigenin chemiluminescence, HL-60; type: cell-based, human; conditions: 12.5 and 25 μM, 2 h and 4 h (FIG. 5B)
Procedure: as §1, §2, §3

cells = test: Intracellular pH with BCECF; type: cell-based; conditions: FIG. 5C
Procedure: as §1
Intracellular (pHi) was measured by loading cells with […] dye BCECF (Sigma). Briefly, cells (1×10^6) before or after exposure (2-12 h at 37° C.) to [Os3(CO)10(μ-H)(μ-S)C9H6N] was washed once with HBSS, resuspended in 0.1 ml of HBSS, and loaded with […] of 1 mM BCECF at 37° C. for 30 min in the dark. Cells were then resuspended in 0.5 ml of HBSS and analyzed using a Coulter Epics Elite ESP (Coulter, Hialeah, Fla.) flow cytometer with the excitation set at 488 nm. A minimum of 10,000 events was analyzed, and the ratio of BCECF fluorescence at 525 and 610 was used to obtain intracellular pH from a pH calibration curve. […] Immediately before flow cytometry, cells were loaded with […] nigericin (1 mM stock in absolute alcohol; Sigma), and fluorescence ratio measurements (525 nm/610 nm) of cells in nigericin-containing buffers of a range of pH were then used to relate histogram channel numbers to ipH. […]

HL-60 cells [4] = test: Flow cytometric analysis of intracellular H2O2 (DCFH-DA); type: cell-based, human
Procedure: Cells were then loaded with DCFH-DA (5 μM) for 15 minutes and the amount of intracellular H2O2 generated was indicated by the shift in fluorescence as detected by flow cytometry.
Intracellular H2O2 was determined by staining with 2,7-dichloro-fluorescein diacetate (Molecular Probes, Eugene, Oreg.), which is oxidised to dichlorofluorescein by H2O2 described elsewhere (Hirpara, J. L., et al., J Biol. Chem. (2001) 276, 514-521). In brief, HL-60 cells were exposed to […] [Os3(CO)10(μ-H)(μ-S)C9H6N] 4 h, loaded with […] 2′,7′-dichlorofluorescein diacetate at 37° C. for […], and analysed by flow cytometry (Coulter Epics Elite ESP; excitation 488 nm). Catalase (1000 units/ml) was used to scavenge intracellular H2O2 before addition of the drugs and flow cytometric analysis of H2O2 for 4 h, followed by flow cytometry for H2O2. At least 10,000 events were analysed.

death receptor CD95 = test: Surface expression of CD95 by flow cytometry; type: cell-based, human; set-up: dose or concentration left out as unconfirmed; conditions: HL60 cells, 12 hours
Procedure: FIG. 8 depicts the upregulation of Cd95 by [Os3(CO)10(μ-H)(μ-S)C9H6N] in tumour cells. HL60 cells were treated with […] [Os3(CO)10(μ-H)(μ-S)C9H6N] for 12 hours and surface expression of CD95 was analysed by flow cytometry as described in Materials and Methods. The shaded histograms show unstained cells. Mouse IgG1k was used as an isotype control. At least 10,000 events were counted, and data shown are representative of at least three separate experiments.

caspases 2, 8, 9, and 3 [5] = test: Caspase activities (AFC substrates), HL60; type: cell-based, human; conditions: HL60 cells, within 6 hours; more pronounced than in Jurkat
Procedure: (§4) Activities of caspases 8, 2, 9, and 3 were determined in lysates of [Os3(CO)10(μ-H)(μ-S)C9H6N]-treated (A) Jurkat and (B) HL 60 cells and shown as fold increase over untreated cells.
(§5) Caspases 2, 3, 8, and 9 activities were assayed by using AFC-conjugated substrates supplied by Bio-Rad. Cells (1×10^6 cells/ml) were incubated with the drugs over a time course, washed twice with 1×PBS, resuspended in 50 μl of chilled cell lysis buffer (provided by the supplier), and incubated on ice for 10 min. 50 μl of 2× reaction buffer (10 mM HEPES, 2 mM EDTA, 10 mM KCl, 1.5 mM MgCl2, 10 mM dithiothreitol) and […] of the fluorogenic caspase-specific (VDVAD-AFC for caspase 2, DEVD-AFC for caspase 3, IETD-AFC for caspase 8, and LEHDAFC for caspase 9) were added to each sample and incubated at 37° C. for 1 h. Protease activity was determined by the relative fluorescence intensity at 505 nm following excitation at 400 nm using a spectrofluorimeter (Luminescence Spectrometer LS50B, PerkinElmer Life Sciences, Buckinghamshire, United Kingdom).

caspases 2, 8, 9, and 3 [6] = test: Caspase activities (AFC substrates), Jurkat; type: cell-based; conditions: Jurkat cells, within 6 hours
Procedure: as §4, §5

cytochrome C = test: Western blotting for cytochrome C release; type: cell-based, human; conditions: HL60 cells, 12.5 and 25 μM, 12 hours
Procedure: (§6) FIG. 12 illustrates that [Os3(CO)10(μ-H)(2-S)C9H6N] induces apoptosis through the mitochondrial pathway. HL60 cells (30×10^6) were treated with 12.5 (A) and 25 μM (B) of [Os3(CO)10(μ-H)(μ-S)C9H6N] treated for 12 hours and cytosolic and mitochondria fractions were subjected to SDS-PAGE electrophoresis, transferred to PVDF membrane, and probe with anti-Cyt.C and anti-Bax antibodies (C). Anti-βactin antibody was used to assess equal loading of samples.
Cytochrome c release was assessed by Western blot analysis of cytosolic extracts from 30×10^6 cells as described previously (Hirpara, J. L. et al., J. Biol. Chem. (2001) 276, 514-521, incorporated herein by reference in its entirety; Pervaiz et al., 1999, supra). Cytosolic fractions were obtained and analysed by Western blotting.
Briefly, cells were washed twice with ice-cold PBS, pH 7.4, followed by centrifugation at 200×g for 5 minutes. The cell pellet was then resuspended in 600 μL of extraction buffer, containing 200 mmol/L mannitol, 68 mmol/L sucrose, 50 mmol/L PIPES-KOH, pH 7.4, 50 mmol/L KCl, 5 mmol/L EGTA, 2 mmol/L MgCl2, 1 mmol/L DTT, and protease inhibitors (Complete Cocktail; Boehringer Mannheim, Mannheim, Germany). […] Signal was detected by the Super Signal Substrate Western Blotting kit (Pierce).

Bax = test: Western blot of Bax sub-cellular localization; type: cell-based, human; conditions: HL60 cells, 12.5 and 25 μM, 12 hours
Procedure: as §6
For analysis of poly(ADP-ribose) polymerase cleavage, lysates from 2×10^6 cells were prepared in sample buffer [50 mmol/L Tris/HCl (pH 6.8), 6 mol/L urea, 3% SDS, 0.003% Bromphenol Blue, and 6% β-mercaptoethanol] and subjected to Western blot analysis using anti-poly(ADP-ribose) polymerase (clone C-2-10, PharMingen) as described (Pervaiz et al., 199, supra). For Western blot analysis of Bax, cells (2×10^6) were lysed by adding […] of chilled 1× radioimmunoprecipitation assay buffer lysis buffer, and 50 μg of protein were subjected to 15% PAGE and transferred to polyvinylidene difluoride as above. Alternatively for analysis of Bax dimerization/multimerization, cell lysates were subjected to 10% native gel electrophoresis. […] Chemiluminescence was detected as described above.

Akt/PKB = test: Western blot of total Akt/PKB and Akt/PKB phosphorylation (Ser473); type: cell-based, human
Procedure: The capability of the varying doses of [Os3(CO)10(μ-H)(μ-S)C9H6N] to dephosphorylate and deactivate Akt was shown by Western blot. HL 60 cells (2×10^6) were incubated with varying doses of [Os3(CO)10(μ-H)(μ-S)C9H6N] (12.5 and 25 μM) for 2, 4, and 6 hours and cell lysates were obtained for Western blot analysis of the Akt phosphorylation status.
HL-60 cells (2×10^6) were plated in a 12 well plate followed by exposure to the drug. Cells were harvested, washed once with PBS, and then lysed with cell lysis buffer [150 mmol/L NaCl, Tris-HCl (pH 7.4), 1% NP40]. Cell lysate (200 μg) was then electrophoresed on an 8% acrylamide gel. Antibodies were used to probe for total Akt and phosphorylated Akt/PKB at the Ser473 position (Cell Signaling, Beverly, Mass.). Protein blots were probed with anti β-actin (Sigma-Aldrich, St. Louis, Mo.) to check for equal protein loading).

[Os3(CO)10(μ-H)(μ-S)C9H6N]
percentage of sub-diploid DNA (sub-G1 fraction) (HL-60 cells [1]): increased significantly
DNA fragmentation / apoptosis with Bcl-2 overexpression [2]: inhibited
DNA fragmentation / apoptosis with Bcl-2 overexpression ([2]; listed as [Os3(CO)10(μ-H)(μ-S)C9H9N]): blocked
DNA fragmentation (sub-G1) ([2]; Jurkat Neo): induces DNA fragmentation
intracellular O2− production (jurkat cells): early increase
intracellular O2− production (HL-60 cells [3]): early increase
cytosolic pH (cells): significant drop
intracellular H2O2 (HL-60 cells [4]; HL-60, 12.5 and 25 μM, within 4 hours): significant surge
intracellular H2O2 in presence of catalase (HL-60 cells [4]; HL-60, catalase 1000 U/ml): completely blocked
surface expression of CD95 (death receptor CD95): upregulation; also recorded: significant increase
activation of caspases 2, 8, 9 and 3 (caspases 2, 8, 9, and 3 [5]): induces caspase activation
activation of caspases 2, 8, 9 and 3 (caspases 2, 8, 9, and 3 [6]): induces caspase activation
cytochrome C release (cytochrome C): occurred in a dose dependent manner
sub-cellular localization of Bax (Bax): no significant change
total Akt signal (Akt/PKB; HL-60, 12.5 and 25 μM, 2, 4 and 6 hours): remained almost unchanged
Akt phosphorylation (Akt/PKB; HL-60, 12.5 and 25 μM, within 4 to 6 hours of exposure): down regulation; also recorded: strong inhibition
